Test in all cases: Minimum inhibitory concentration (MIC90)
Holding throughout (format): cell-based

Assay [1] relates to S. pneumoniae/penicillin sensitive. The source says: (§1) The concentrations of the antibiotics of formula (I) in the compositions of the present invention will vary depending on the intended use of the compositions (e.g., treatment of existing infections or prevention of post-surgical infections), and the relative antimicrobial activity of the specific antibiotic selected. The antimicrobial activity of antibiotics is generally expressed as the minimum concentration required to inhibit the growth of a specified pathogen. This concentration is also referred to as the “minimum inhibitory concentration” or “MIC”. The term “MIC90” refers to the minimum concentration of antibiotic required to inhibit the growth of ninety percent (90%) of the strains of a species. The concentration of an antibiotic required to totally kill a specified bacteria is referred to as the “minimum bactericidal concentration” or “MBC”. The minimum inhibitory concentration of Trovafloxacin for several bacteria commonly associated with ophthalmic, otic and nasal infections are provided in the following table: […]

The test system of assay [2] is S. aureus/methicillin sensitive.
Source text: as §1

For assay [3], the system named is S. pneumoniae/penicillin resistant.
Source text: as §1

A further assay concerns P. aeruginosa.
Source text: as §1

Assay [4] deals with S. aureus/quinolone resistant.
Source text: as §1

Assay [5] concerns S. epidermidis/methicillin resistant.
Source text: as §1

Assay [6] relates to H. influenzae/βlactamase negative.
Source text: as §1

Assay [7] concerns S. epidermidis/methicillin sensitive.
Source text: as §1

Assay [8] has as its system H. influenzae/β-lactamase positive.
Source text: as §1

The subject of assay [9] is S. aureus/methicillin resistant.
Source text: as §1

In brackets after ≈: the same amount, converted by molar mass.

Consider `N[C@@H]1[C@H]2CN(c3nc4c(cc3F)c(=O)c(C(=O)O)cn4-c3ccc(F)cc3F)C[C@@H]12` [Trovafloxacin], for which the MIC90 was 0.25 µg/mL (≈ 0.6 µM) in [1]; 0.03 µg/mL (≈ 0.0721 µM) in assay [2]; 0.25 µg/mL (≈ 0.6 µM) in [3]; 2.0 µg/mL (≈ 4.8 µM) with P. aeruginosa; 4.0 µg/mL (≈ 9.61 µM) in assay [4]; 4.0 µg/mL (≈ 9.61 µM) in assay [5]. Also, the MIC90 in [6] worked out at 0.03 µg/mL (≈ 0.0721 µM); in assay [7], 0.06 µg/mL (≈ 0.144 µM); in [8], 0.03 µg/mL (≈ 0.0721 µM); in assay [9] it was 2.0 µg/mL (≈ 4.8 µM).

The values are drawn from patent US6395746B1, “Methods of treating ophthalmic, otic and nasal infections and attendant inflammation” (Alcon Manufacturing, Ltd., priority 1998, dated 2002).
